From US9266848B2, “4-alkoxy-N-(2-hydroxycarbamoyl-2-piperidinyl-ethyl)-benzamide compounds as selective TACE-inhibitors for the treatment of inflammatory diseases” (GALDERMA RESEARCH & DEVELOPMENT, priority 2009, dated 2016)

What was measured:
TACE enzyme = TACE enzyme (Homo sapiens, UniProt P78536); experiment: Enzymatic test of TACE inhibition; assay type: biochemical
Protocol: (§1) The products are dissolved so as to obtain a concentration of 10 mM in DMSO.
The substrate is used at 40 μM.

MMP1 = MMP1 (Homo sapiens (Human), UniProt P03956); experiment: Selectivity test MMP1; assay type: biochemical
Protocol: as §1
The substrate is used at 40 μM.
(§2) The enzymes are purchased from Calbiochem.

ADAM10 = ADAM10 (Homo sapiens (Human), UniProt O14672); experiment: Selectivity test ADAM10; assay type: biochemical
Protocol: as §1
The substrate is used at 40 μM.
as §2

MMP3 = MMP3 (Homo sapiens (Human), UniProt P08254); experiment: Selectivity test MMP3; assay type: biochemical
MMP3, sequence (P08254 100-477, species assumed): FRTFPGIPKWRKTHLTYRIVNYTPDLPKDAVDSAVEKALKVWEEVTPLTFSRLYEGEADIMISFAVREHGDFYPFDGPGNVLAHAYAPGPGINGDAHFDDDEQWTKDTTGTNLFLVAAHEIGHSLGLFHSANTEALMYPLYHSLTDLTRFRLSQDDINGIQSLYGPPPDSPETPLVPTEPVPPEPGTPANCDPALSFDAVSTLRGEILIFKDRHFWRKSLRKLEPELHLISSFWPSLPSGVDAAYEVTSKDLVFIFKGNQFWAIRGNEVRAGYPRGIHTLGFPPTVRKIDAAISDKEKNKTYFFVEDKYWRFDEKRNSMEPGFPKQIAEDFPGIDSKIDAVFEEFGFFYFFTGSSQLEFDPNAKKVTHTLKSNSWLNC
Protocol: as §1
The substrate is used at 40 μM.
as §2

TACE enzyme, sequence (P78536 215-824 limits assumed): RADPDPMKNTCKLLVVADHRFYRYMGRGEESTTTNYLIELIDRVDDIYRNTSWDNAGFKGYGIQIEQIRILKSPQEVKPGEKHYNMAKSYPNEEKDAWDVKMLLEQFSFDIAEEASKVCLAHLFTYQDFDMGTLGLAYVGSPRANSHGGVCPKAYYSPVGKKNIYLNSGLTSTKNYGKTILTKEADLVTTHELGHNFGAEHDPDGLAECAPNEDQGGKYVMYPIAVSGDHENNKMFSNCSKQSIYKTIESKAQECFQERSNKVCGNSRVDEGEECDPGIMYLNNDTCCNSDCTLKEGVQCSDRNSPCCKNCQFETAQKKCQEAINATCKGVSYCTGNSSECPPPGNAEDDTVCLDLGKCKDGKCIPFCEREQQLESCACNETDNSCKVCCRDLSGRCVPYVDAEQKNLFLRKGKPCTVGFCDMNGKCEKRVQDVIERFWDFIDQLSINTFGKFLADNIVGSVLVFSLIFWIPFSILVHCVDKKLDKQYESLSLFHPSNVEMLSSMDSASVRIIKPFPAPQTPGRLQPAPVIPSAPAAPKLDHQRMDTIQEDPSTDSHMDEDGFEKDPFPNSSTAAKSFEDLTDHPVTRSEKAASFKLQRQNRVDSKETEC
ADAM10, sequence (O14672 214-748, species assumed): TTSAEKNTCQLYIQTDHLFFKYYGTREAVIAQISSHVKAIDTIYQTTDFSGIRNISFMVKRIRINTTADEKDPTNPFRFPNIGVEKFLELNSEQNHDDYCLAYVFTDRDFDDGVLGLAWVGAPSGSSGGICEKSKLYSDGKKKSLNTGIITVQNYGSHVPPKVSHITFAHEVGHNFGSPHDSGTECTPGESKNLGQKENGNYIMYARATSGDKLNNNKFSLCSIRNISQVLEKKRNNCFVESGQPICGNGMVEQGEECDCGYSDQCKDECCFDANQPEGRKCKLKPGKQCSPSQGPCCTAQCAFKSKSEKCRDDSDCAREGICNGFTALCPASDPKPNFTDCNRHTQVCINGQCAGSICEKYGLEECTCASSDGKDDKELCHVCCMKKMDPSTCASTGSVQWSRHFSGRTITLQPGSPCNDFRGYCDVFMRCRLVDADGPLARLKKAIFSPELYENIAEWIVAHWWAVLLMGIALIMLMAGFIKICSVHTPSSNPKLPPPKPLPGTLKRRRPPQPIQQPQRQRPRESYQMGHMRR
MMP1, sequence (P03956 100-469, species assumed): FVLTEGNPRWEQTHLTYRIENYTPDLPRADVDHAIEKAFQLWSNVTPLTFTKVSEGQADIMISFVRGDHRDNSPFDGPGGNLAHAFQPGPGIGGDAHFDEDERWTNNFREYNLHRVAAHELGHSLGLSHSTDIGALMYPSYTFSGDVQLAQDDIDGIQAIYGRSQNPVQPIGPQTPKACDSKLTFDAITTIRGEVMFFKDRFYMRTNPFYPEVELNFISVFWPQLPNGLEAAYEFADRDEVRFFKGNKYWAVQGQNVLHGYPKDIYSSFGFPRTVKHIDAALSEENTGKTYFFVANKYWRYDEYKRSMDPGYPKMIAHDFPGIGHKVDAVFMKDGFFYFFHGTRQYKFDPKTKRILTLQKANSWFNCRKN

| SMILES | % TACE inhibition at 10 μM (TACE enzyme) [%] | melting point [°C] | IC50 (MMP1) [nM] | IC50 (ADAM10) [nM] | IC50 (TACE enzyme; fluorescent substrate 40 μM) [nM] | IC50 (TACE enzyme; selectivity table) [nM] | IC50 (MMP3) [nM] |
| --- | --- | --- | --- | --- | --- | --- | --- |
| O=C(NC[C@@H](C(=O)NO)N1CCCCC1)c1ccc(OCc2ccnc(Br)c2)cc1 [Example 8, 4-(2-bromopyridin-4-ylmethoxy)-N—((S)-2-hydroxycarbamoyl-2-piperidin-1-ylethyl)benzamide] | 91 | 150 |  |  |  |  |  |
| Cc1cc(COc2ccc(C(=O)NC[C@@H](C(=O)NO)N3CCCCC3)cc2)c2ccccc2n1 [Example 2, N—((S)-2-hydroxycarbamoyl-2-piperidin-1-yl-ethyl)-4-(2-methylquinolin-4-ylmethoxy)benzamide] | 100 |  | 9950 | 6400 | 71 | 71 |  |
| O=C(NC[C@@H](C(=O)NO)N1CCOCC1)c1ccc(OCc2ccnc(-c3ccccc3C(F)(F)F)c2)cc1 [Example 10, N—((S)-2-hydroxycarbamoyl-2-morpholin-4-ylethyl)-4-[2-(2-trifluoromethylphenyl)pyridin-4-yl-methoxy]benzamide] | 90 |  |  |  | 900 |  |  |
| Cc1ccc(COc2ccc(C(=O)NC[C@@H](C(=O)NO)N3CCCCC3)cc2)c2ccccc12 [Example 7, N—((S)-2-hydroxycarbamoyl-2-piperidin-1-yl-ethyl)-4-(4-methylnaphthalen-1-ylmethoxy)benzamide] | 90 |  |  |  | 91 |  |  |
| O=C(NC[C@@H](C(=O)NO)N1CCCCC1)c1ccc(OCc2ccnc(-c3ccccc3)c2)cc1 [Example 4, N—((S)-2-hydroxycarbamoyl-2-piperidin-1-yl-ethyl)-4-(2-phenylpyridin-4-ylmethoxy)benzamide] | 100 |  |  |  |  |  |  |
| CCN(CC)[C@@H](CNC(=O)c1ccc(OCc2cc(C)nc3ccccc23)cc1)C(=O)NO [Example 11, N—((S)-2-diethylamino-2-hydroxycarbamoyl-ethyl)-4-(2-methylquinolin-4-ylmethoxy)benzamide] | 91 |  |  |  | 232 | 232 |  |
| O=C(NC[C@@H](C(=O)NO)N1CCOCC1)c1ccc(OCc2ccncc2)cc1 [Example 9, N—((S)-2-hydroxycarbamoyl-2-morpholin-4-ylethyl)-4-(pyridin-4-ylmethoxy)benzamide] | 92 |  |  |  | 428 |  |  |
| O=C(NC[C@@H](C(=O)NO)N1CCCCC1)c1ccc(OCc2cc(Cl)nc(Cl)c2)cc1 [Example 3, 4-(2,6-dichloropyridin-4-ylmethoxy)-N—((S)-2-hydroxycarbamoyl-2-piperidin-1-ylethyl)benzamide] | 97 |  |  |  | 255 |  |  |
| O=C(NC[C@@H](C(=O)NO)N1CCCCC1)c1ccc(OCc2ccncc2)cc1 [Example 5, N—((S)-2-hydroxycarbamoyl-2-piperidin-1-yl-ethyl)-4-(pyridin-4-ylmethoxy)benzamide] | 93 |  |  | 3090 | 108 | 108 | 6120 |
| CC#CCOc1ccc(C(=O)NC[C@@H](C(=O)NO)N2CCCCC2)cc1 [Example 1, 4-but-2-ynyloxy-N—((S)-2-hydroxycarbamoyl-2-piperidin-1-ylethyl)benzamide] | 96 |  |  |  | 9 |  |  |
